Experimental data reported in patent publication US20250332131A1, “COMPOSITION FOR ACTIVATING NICOTINAMIDE PHOSPHORIBOSYLTRANSFERASE” (Yuki Gosei Kogyo Co., Ltd., priority 2024, published 2025).

Tested on: miRNA contained in exosomes secreted from C2C12 cells
Conditions: ratio of 1.5 or more compared to the control and signal value exceeding 100; Table 1, FIG. 5
Experimental: In this example, miRNA in exosomes was analyzed by microarray.
The exosome solution purified in Example 2 was used for microarray analysis. The microarray experiment was outsourced to Kamakura Techno Science (Kanagawa, Japan). Based on the data obtained, samples with a ratio of 1.5 or more compared to the control and with either of the two samples with a signal value exceeding 100 were extracted as miRNAs with altered transcription levels.

In the case of `NCCC(=O)O` [β-alanine, 3-aminopropanoic acid], the “miRNA increased in exosomes of C2C12 cells” value is reported as “six RNAs were increased”.
